# Test results taken from PMC9063808, “Structural insights into the calcium dependence of Stig cyclases” (RSC Advances, 2019).
# Biological target: T1, FamC1 (Fischerella ambigua, UniProt A0A076N4W8, N137A)
# T1 construct: gene ambU4; recombinant; homodimer in crystal
# Test: X-ray crystallography, […] A
# Details: Ca1 site empty, Ca2 bound; substrate-binding pocket; ligand came from the crystallization solution, not added on purpose
# T1 sequence (A0A076N4W8 entry or part of it N137A): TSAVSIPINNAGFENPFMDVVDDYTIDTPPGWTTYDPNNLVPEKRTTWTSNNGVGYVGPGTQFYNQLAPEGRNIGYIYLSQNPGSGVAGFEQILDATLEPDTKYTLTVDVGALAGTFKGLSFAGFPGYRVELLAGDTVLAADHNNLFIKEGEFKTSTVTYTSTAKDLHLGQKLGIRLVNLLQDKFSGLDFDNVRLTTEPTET
smiles,measurement,value
N=C(N)NCCC[C@@H]1NC(=O)[C@H]2CCCN2C1=O [CI-4],"X-ray crystallography, 1.48 A",The N137A crystal was grown in the same crystallization condition and one molecule of CI-4
